Details of series [1]: method as in Zheng et al., 2019. To be noted: ref Zheng et al., 2019; cited from earlier work.
Details of series [2]: method as in Chong et al., 2020. The following applies: rats; ref Chong et al., 2020; cited from earlier work.
For series [3], the system named is CYP2J2 and CYP3A4. To be noted: predicted increase in rivaroxaban exposure from CYP2J2 and CYP3A4 inhibition. From the text:
Kinetic constants were included in the mechanistic static model to explore reversible inhibition and the TDI. […] In the present study, this model was designed to explore the contributions of enzyme inhibition in the prediction of DDI risk. The area under the curve ratio (AUC ratio/AUCR) in the presence of a pharmacokinetic DDI was used as the index, as described by Eq. 2.

The nature of series [4]: Rivaroxaban pharmacokinetics in rats, oral administration with or without TKIs. In kind it is in vivo, Wistar rats. The method, then: (§1) The LC-MS/MS method was used to quantitatively determine rivaroxaban for cell and animal experiments. LC-MS/MS analysis was performed using an API 3200 triple-quadrupole mass spectrometer (Applied Biosystems, Concord, Ontario, Canada) and an Agilent LC system Agilent HP1200 (Agilent Technology Inc. CA, United States). The column was a Hypersil ODS-BP column (150 mm × 2.1 mm, 5 μm; Dalian Elite Analytical Instruments Co. Ltd. China). […] The flow rate of the mobile phase was 0.4 ml/min. The mobile phase contained acetonitrile and water with 0.2% (v/v) formic acid at 65:35 (v/v) for rivaroxaban in cell experiments. The determination of rivaroxaban in the blood was achieved by gradient elution methods with a mobile phase of acetonitrile (A) and pure water with 10 mM ammonium acetate (B).
(§2) To further investigate the DDI risk between rivaroxaban and the TKIs, the pharmacokinetic parameters were measured in Wistar rats (male, 160–200 g). The experiments were reviewed and approved by the Experimental Animal Centre of Dalian Medical University. […] All rats had free access to food and water and were fed adaptively for 7 days. […] Thirty-six rats were divided into six groups randomly. […] After centrifugation, the plasma proteins were precipitated using acetonitrile, followed by vortexing and centrifugation.
(§3) All pharmacokinetic parameters in the present study were analyzed using the Drug and Statistics software (DAS 2.0, Windows). In the bidirectional experiments, the apparent permeability values (Papp), efflux ratio (ER), and net flux ratio were calculated by Eqs. […] The transport of rivaroxaban was assessed to determine apparent Michaelis–Menten constants (Km,app). […] AP is transported from the apical to the basolateral side, and BL is transported from the basolateral to the apical side. Net flux ratiomax is the maximal effect, C is the concentration of rivaroxaban, and h is the Hill coefficient of the sigmoid model.

In series [5] the target is T1, P-gp (Homo sapiens, UniProt P08183). To be noted: MDR1-MDCK cells, TKI 5 μM.
Description: Mock-MDCK and MDR1-MDCK cells were seeded in six-well plates and grown to 80% confluency.
The conditions of series [6]: patients with solid tumors; ref Gschwind et al. (2005), Sparano et al. (2009), Di Gion et al. (2011), Scheffler et al. (2011); read-out: I (Cmax of patients with solid tumors); cited from earlier work.
Series [7] deals with T2, BCRP (Homo sapiens, UniProt Q9UNQ0).
T2 sequence (Q9UNQ0 1-655): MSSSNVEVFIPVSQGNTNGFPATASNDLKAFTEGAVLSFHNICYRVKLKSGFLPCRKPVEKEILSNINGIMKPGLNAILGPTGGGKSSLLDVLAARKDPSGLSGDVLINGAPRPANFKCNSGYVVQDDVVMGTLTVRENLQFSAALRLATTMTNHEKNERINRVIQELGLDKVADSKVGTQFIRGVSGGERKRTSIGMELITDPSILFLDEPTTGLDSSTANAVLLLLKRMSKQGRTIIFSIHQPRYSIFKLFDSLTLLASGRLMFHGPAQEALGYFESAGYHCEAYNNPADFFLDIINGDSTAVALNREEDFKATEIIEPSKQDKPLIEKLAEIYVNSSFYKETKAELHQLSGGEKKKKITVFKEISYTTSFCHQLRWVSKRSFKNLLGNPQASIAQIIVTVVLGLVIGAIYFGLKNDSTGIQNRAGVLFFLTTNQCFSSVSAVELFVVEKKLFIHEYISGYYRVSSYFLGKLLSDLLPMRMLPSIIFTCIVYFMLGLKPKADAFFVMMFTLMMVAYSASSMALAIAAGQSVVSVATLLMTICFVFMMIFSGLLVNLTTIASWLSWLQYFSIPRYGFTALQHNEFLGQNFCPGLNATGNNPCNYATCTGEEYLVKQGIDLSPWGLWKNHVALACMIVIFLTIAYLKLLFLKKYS
Put plainly: Bidirectional transport of rivaroxaban, ABCG2-MDCK vs mock-MDCK. The method, then: as §1
(§4) Mock-MDCK, MDR1-MDCK, and ABCG2-MDCK cells were seeded in 24-well transwell inserts (0.33 cm^2, 0.4 μm) at a density of 2.5 × 10^5 cells/ml, and cells were allowed to culture for 3–5 days to form cell monolayers. The Millicell-ERS system was used to measure the TEER (Trans Epithelial Electric Resistance) values of the monolayers. […] Briefly, the monolayer was washed gently using 37°C HBSS (pH 7.4) and preincubated with HBSS for 10 min at 37°C. Then, various concentrations of TKIs were added to the HBSS on either the basolateral (total volume of 800 μl) or apical (total volume of 200 μl) side of the monolayers, and the cells in the transwell inserts were allowed to further incubate at 37°C for 2 h. At last, a 100-μl solution was taken from the other side for quantitative analysis by LC-MS/MS.
as §3

In series [8] the target is T1, P-gp. In words: Bidirectional transport of rivaroxaban, MDR1-MDCK vs mock-MDCK. The method, then:
as §1, §4, §3

Series [9] can be described thus: Rivaroxaban pharmacokinetics in rats, intravenous administration with or without imatinib. In kind it is in vivo. To be noted: male, Wistar, rat, plasma, 0.4 mg/kg, i.v. The method, then:
as §1, §2, §3

For series [10], the system named is pooled human liver microsomes (HLM). More on the design: method as in Zhao et al., 2022. To be noted: ref Zhao et al., 2022; read-out: Km of rivaroxaban metabolism, HLM; cited from earlier work.
The target in series [11] is T3, recombinant human CYP2J2 (Homo sapiens, UniProt P51589).
T3 sequence (P51589 1-502): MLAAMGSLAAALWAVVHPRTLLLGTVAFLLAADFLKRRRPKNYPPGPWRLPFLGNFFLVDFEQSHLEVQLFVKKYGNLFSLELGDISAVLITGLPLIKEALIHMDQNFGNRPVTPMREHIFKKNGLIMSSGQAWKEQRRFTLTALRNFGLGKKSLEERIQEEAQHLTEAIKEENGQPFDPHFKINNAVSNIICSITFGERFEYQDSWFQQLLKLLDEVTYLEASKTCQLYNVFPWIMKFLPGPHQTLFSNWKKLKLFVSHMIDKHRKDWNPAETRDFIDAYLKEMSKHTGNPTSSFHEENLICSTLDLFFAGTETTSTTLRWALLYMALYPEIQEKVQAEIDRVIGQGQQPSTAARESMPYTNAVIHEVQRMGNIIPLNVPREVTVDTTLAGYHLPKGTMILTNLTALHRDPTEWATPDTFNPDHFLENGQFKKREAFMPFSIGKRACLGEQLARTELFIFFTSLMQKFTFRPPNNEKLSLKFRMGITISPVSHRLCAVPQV
More on the design: method as in Zhao et al., 2022. To be noted: ref Zhao et al., 2022, cited from earlier work.

For series [12], the target named is recombinant human CYP3A4 (Homo sapiens, UniProt P08684). Also on record: method as in Zhao et al., 2022. The following applies: ref Zhao et al., 2022, cited from earlier work.
Details of series [13]: method as in Mueck et al., 2013. To be noted: ref Mueck et al., 2013; cited from earlier work.
For series [14], the system named is rivaroxaban metabolism in HLM. In words: Inhibition of rivaroxaban metabolism in HLM incubation. In kind it is in vitro ADME. The following applies: human, pooled human liver microsomes, probe rivaroxaban (concentration chosen from Km, 22.81 μM for HLM), HLM 0.3 mg/mL, main metabolite formation, five independent experiments, read-out: IC50 of TKI inhibition of rivaroxaban metabolism, HLM.
Description: The formation of the main metabolite of rivaroxaban in the CYP inhibition assays was quantitatively determined using HPLC. The mobile phase consisted of 60% methanol (A pump) and 40% pure water with 0.2% formic acid (B pump) with isocratic elution.
The inhibitory effect of the TKIs on the metabolism of rivaroxaban in recombined P450 isoforms and HLM incubations was compared by quantifiably detecting the production of the major metabolite using HPLC. The concentrations of HLM, CYP2J2, and CYP3A4 were 0.3, 0.4, and 0.6 mg mL^−1, respectively. […] Briefly, after 5-min preincubation of potential inhibitors with isoforms, NADPH was added to initiate the reaction. The reaction mixture was incubated at 37°C for 60 min, and ice acetonitrile was used for terminating the reaction. The ratio of major metabolite production of rivaroxaban in the TKI incubation group to that obtained in the control group represents the inhibitory activity.
To explore the inhibitory effects of the three TKIs on rivaroxaban metabolism, three concentrations of TKIs (1, 10, and 100 μM) were used to perform the in vitro enzyme incubations. The ratio of the rivaroxaban main metabolite formation in the incubation with the TKIs to that without inhibitors represented the inhibitory activity.
The IC50 values were obtained by nonlinear fitting of the TKI concentration and the remaining enzyme activity.

Where [15] appears, read: male, Wistar, rat, plasma, po, rivaroxaban 2.1 mg/kg, n = 5.

Entries after “also recorded” stand apart in the source; their conditions may differ. Where two headings read alike, the source gives them in different places.

In general, Cmax refers to the peak of the concentration-time curve. In general, Km refers to the concentration of substrate that gives half-maximal velocity. One may read the AUC(0-t) as the area under the concentration-time curve up to a stated or last time point. Low values mean less exposure, high ones more exposure. Usually Tmax stands for the time from dosing to the highest level. Broadly, the IC50 is the point on the concentration scale where inhibition reaches its midpoint. As usually defined, the inhibition is the drop in the measured response relative to a control, in per cent. A higher inhibition goes with a response far below the control.

T1 sequence (P08183 whole entry): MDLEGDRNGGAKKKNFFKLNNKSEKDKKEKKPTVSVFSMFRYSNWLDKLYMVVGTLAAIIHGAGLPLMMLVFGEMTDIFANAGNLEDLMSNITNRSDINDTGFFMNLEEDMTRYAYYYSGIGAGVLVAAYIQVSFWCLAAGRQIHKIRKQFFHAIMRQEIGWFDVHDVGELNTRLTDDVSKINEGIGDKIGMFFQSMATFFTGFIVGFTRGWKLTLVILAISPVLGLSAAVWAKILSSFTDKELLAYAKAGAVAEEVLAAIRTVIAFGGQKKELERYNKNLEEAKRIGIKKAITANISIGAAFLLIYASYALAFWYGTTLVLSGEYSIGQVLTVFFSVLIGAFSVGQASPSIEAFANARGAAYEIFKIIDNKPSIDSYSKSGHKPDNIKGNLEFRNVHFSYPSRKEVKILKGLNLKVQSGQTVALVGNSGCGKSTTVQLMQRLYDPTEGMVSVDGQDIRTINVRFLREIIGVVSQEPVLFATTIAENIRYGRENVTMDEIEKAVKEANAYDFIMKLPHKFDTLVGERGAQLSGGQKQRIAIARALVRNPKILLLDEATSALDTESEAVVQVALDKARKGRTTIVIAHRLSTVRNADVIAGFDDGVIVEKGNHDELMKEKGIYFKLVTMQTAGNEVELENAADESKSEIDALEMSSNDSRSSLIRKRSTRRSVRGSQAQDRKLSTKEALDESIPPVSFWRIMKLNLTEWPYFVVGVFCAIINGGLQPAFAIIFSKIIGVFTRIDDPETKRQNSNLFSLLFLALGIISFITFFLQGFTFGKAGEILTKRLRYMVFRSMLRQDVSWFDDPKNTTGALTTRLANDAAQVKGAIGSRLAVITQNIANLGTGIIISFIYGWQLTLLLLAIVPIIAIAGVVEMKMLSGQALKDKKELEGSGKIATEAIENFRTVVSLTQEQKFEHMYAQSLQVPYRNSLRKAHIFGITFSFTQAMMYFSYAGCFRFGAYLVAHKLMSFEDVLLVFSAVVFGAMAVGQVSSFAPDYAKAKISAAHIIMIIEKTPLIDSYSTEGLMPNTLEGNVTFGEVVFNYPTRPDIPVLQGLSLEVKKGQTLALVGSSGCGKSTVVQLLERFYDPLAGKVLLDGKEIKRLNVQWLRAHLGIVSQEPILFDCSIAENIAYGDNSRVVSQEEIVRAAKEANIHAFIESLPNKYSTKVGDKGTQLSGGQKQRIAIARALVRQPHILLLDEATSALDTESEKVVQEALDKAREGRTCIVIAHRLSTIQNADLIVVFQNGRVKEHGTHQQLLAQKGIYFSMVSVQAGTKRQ
recombinant human CYP3A4, sequence (P08684 whole entry): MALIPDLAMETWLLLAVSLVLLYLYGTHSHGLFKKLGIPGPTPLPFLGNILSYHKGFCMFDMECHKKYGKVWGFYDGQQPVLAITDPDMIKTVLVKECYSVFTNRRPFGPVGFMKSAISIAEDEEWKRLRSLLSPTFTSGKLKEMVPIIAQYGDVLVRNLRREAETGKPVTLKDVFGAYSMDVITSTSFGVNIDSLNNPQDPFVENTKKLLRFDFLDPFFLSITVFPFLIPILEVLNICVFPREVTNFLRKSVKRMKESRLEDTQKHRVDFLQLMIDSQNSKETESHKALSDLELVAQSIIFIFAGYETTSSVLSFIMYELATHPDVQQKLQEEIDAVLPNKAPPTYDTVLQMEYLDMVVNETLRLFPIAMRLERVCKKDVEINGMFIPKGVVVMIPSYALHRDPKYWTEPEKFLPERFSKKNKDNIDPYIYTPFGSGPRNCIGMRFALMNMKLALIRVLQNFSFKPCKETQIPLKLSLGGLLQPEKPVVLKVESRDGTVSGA

Consider `CCOC(=O)[C@H](CCc1ccccc1)N[C@@H](C)C(=O)N1CCC[C@H]1C(=O)O` [enalapril], for which, in [1], the “increase of the AUC value of rivaroxaban” value is given as 20% and the “increase of the Cmax value of rivaroxaban” value was 20%.
As to `CCCSc1nc(N[C@@H]2C[C@H]2c2ccc(F)c(F)c2)c2nnn([C@@H]3C[C@H](OCCO)[C@@H](O)[C@H]3O)c2n1` [ticagrelor], in [2], the “increase of the AUC of rivaroxaban” value is “two folds”.
As for `COc1cc2ncnc(Nc3ccc(F)c(Cl)c3)c2cc1OCCCN1CCOCC1` [Gefitinib], the “AUC increase (%)” value is 6–11% in series [3] and “not to cause a significant change” in series [3] (listed as gefitinib). Also, in series [4] (p.o.), the “effect on rivaroxaban exposure / pharmacokinetics in vivo” value is recorded as “almost did not affect; also recorded: did not show obvious changes”. The “intracellular fluorescence intensity of rhodamine 123 (fluorescence imaging)” value in series [5] was “slight increase”. Also, the Cmax in series [6] was 190 to 356 nM.
For `O=C(NC[C@H]1CN(c2ccc(N3CCOCC3=O)cc2)C(=O)O1)c1ccc(Cl)s1` [Rivaroxaban], in [7] (ABCG2-MDCK cells), the “Net flux ratio max, BCRP” value was 4.868 fold. Further, the Km at 2 h in [7] (human, pH 7.4) was found to be 3.46 µM; in series [8] (human, MDCK, pH 7.4), 8.42 µM. Also, the “net flux ratio, transportation mediated by BCRP” value in series [7] (substrate identification) is recorded as “more than 2 folds”. For the same compound, the “Net flux ratio max, P-gp” value in series [8] (MDR1-MDCK cells) came out at 10.300 fold. Further, the “net flux ratio, transportation mediated by P-gp” value in series [8] (substrate identification) was “more than 2 folds”. Moreover, the figures for the AUC(0-t) in [4] (setting [15]) and in [9] (n = 5) were 1550 ± 268 ng·h/mL and 4650 ± 446 ng·h/mL, respectively. Moreover, the Cmax in [4] (setting [15]) turned out to be 130 ± 22.7 ng/mL; in [9] (n = 5) it was 3940 ± 780 ng/mL. Further, in series [4] (setting [15]), the time of peak concentration (Tmax) worked out at 4 h. In series [9] (n = 5, read-out: CL of rivaroxaban (converted)), the clearance was 1.38 mL/min/kg. In series [9] (n = 5, read-out: t1/2 of rivaroxaban (converted)), the half-life was 2.44 ± 0.757 h. The Km was 22.8 µM in series [10]; 19.4 µM in [11] (read-out: Km of rivaroxaban metabolism, CYP2J2); 47 µM in [12] (read-out: Km of rivaroxaban metabolism, CYP3A4). Besides, the “fraction of rivaroxaban metabolized by CYP2J2” value in series [11] (input of static model) was 0.95. Further, the “catalytic efficiency of CYP2J2 relative to CYP3A4” value in series [11] is “approximately 39 fold”. In addition, the “fraction of rivaroxaban metabolized by CYP3A4” value in series [12] (input of static model) is 0.025. The “dose eliminated via hydrolysis of the amide bonds” value in [13] is “approximately 14%”.
`Cc1ccc(NC(=O)c2ccc(CN3CCN(C)CC3)cc2)cc1Nc1nccc(-c2cccnc2)n1` [Imatinib]: the IC50 at 60 min in [14] was 1.7 ± 0.119 µM. In addition, the inhibition at 2 h, 5 µM in series [7] (human, pH 7.4) was more than 50%. The inhibition at 2 h in [8] (human, pH 7.4) was approximately 20%. Further, the “intracellular fluorescence intensity of rhodamine 123 (fluorescence imaging)” value in [5] was “significantly increased”. Further, in series [6], the Cmax was 4170 to 9280 nM.
Consider `CCN(CC)CCNC(=O)c1c(C)[nH]c(/C=C2\C(=O)Nc3ccc(F)cc32)c1C` [Sunitinib], for which the IC50 at 60 min in series [14] is 84.2 ± 7.34 µM. In addition, the “AUC increase (%)” value is recorded as 2% in series [3] and “not to cause a significant change” in series [3] (listed as sunitinib). Besides, in series [6], the Cmax was 63 to 69.5 nM.

Source of the values: PMC9441481, “Risk assessment and molecular mechanism study of drug-drug interactions between rivaroxaban and tyrosine kinase inhibitors mediated by CYP2J2/3A4 and BCRP/P-gp” (Frontiers in Pharmacology, 2022).
